Test results reported in patent US20170258711A1, “Fatty Acid Acylated D-Amino Acids for Oral Peptide Delivery” (Novo Nordisk A/S, priority 2012, published 2017).

System: Caco-2 cells
Test: Transepithelial electrical resistance (TEER) of Caco-2 cell monolayers
Type: cell-based
Design: unit not given here
Conditions: for TEER 24 h: 24 h after experiment
Protocol: Caco-2 cells were obtained from the American Type Culture Collection (Manassas, Va.). Cells were seeded in culturing flasks and passaged in Dulbecco's Modified Eagle′ medium supplemented with 10% fetal bovine serum, 1% penicillin/streptomycin (100 U/ml and 100 μg/ml, respectively), 1% L-glutamine and 1% nonessential amino acids. Caco-2 cells were seeded onto tissue culture treated polycarbonate filters in 12-well Transwell plates (1.13 cm2, 0.4 μm pore size) at a density of 10^5 cells/well. Monolayers were grown in an atmosphere of 5% CO2-95% O2 at 37° C. Growth media were replaced every other day. The experiment was performed on day 10-14 after seeding of Caco-2 cells.
Before and during the experiment the transepithelial electrical resistance (TEER) of the cell monolayers was monitored. In selected experiments, the transport buffer were changed to culturing medium after end of experiment and the TEER measured 24 h after experiment. The TEER was measured with EVOM™ Epithelial Voltohmmeter connected to Chopsticks.

[1] = Table 10, L-amino acid counterparts, insulin analogue A14E, B25H, B29K(N(eps)Octadecanedioyl-gGlu-OEG-OEG), desB30 human insulin
[2] = Table 10, L-amino acid counterparts
[3] = Table 11, insulin analogue A1(Nα,Nα-Dimethyl), A14E, B1(Nα,Nα-dimethyl), B25H, B29K(N(eps)Octadecanedioyl-gGlu-OEG-OEG), desB30 human insulin
[4] = Table 12, comparison D- with L-counterparts, footnote: insulin analogue A1(Nα,Nα-Dimethyl), A14E, B1(Nα,Nα-dimethyl), B25H, B29K(N(eps)Octadecanedioyl-gGlu-OEG-OEG), desB30 human insulin
[5] = Table 12, comparison D- with L-counterparts
[6] = Table 9, insulin analogue A14E, B25H, B29K(N(eps)Octadecanedioyl-gGlu-OEG-OEG), desB30 human insulin + 0.5 mM fatty acid acylated amino acid

TEER 24 h [2] | TEER 24 h [3] | TEER 24 h [5] | TEER 24 h (Table 9, in culturing medium) | TEER 24 h (Table 10, L-amino acid counterparts, listed as N-decanoyl-L-Leucine) | TEER 24 h (Table 9, in culturing medium, listed as N-dodecanoyl-D-Leucine) | SMILES | TEER 60 min [1] | TEER 60 min [3] | TEER 60 min [4] | TEER 60 min [6]
112.3 | 97.2 | 112.3 |  |  |  | CCCCCCCCCCCCCCCC(=O)N[C@@H](CC(=O)O)C(=O)O [N-hexadecanoyl-L-aspartic acid, reference compound] | 33.2 | 76.0 | 33.2 | 
 |  | 108.4 | 108.4 |  |  | CCCCCCCCCCCC(=O)N[C@H](Cc1ccccc1)C(=O)O [N-dodecanoyl-D-phenylalanine] |  |  | 37.6 | 37.6
95.3 |  | 95.3 |  |  |  | CCCCCCCCCCCC(=O)N[C@H](C(=O)O)C(C)C [N-dodecanoyl-L-valine, reference compound] | 79.7 |  | 79.7 | 
101.8 |  | 101.8 |  | 102.4 |  | CCCCCCCCCC(=O)N[C@@H](CC(C)C)C(=O)O [N-decanoyl-L-leucine, reference compound] |  |  | 92.2 | 
 |  | 106.2 | 106.2 |  |  | CCCCCCCCCCCCCCCC(=O)N[C@H](CCC(=O)O)C(=O)O [N-hexadecanoyl-D-glutamic acid] |  |  | 35.6 | 35.6
 | 91.4 | 100 | 100.0 |  | 101.4 | CCCCCCCCCCCC(=O)N[C@H](CC(C)C)C(=O)O [N-dodecanoyl-D-leucine] |  | 50.9 | 42.8 | 
 |  | 125.3 | 125.3 |  |  | CCCCCCCCCCCCCC(=O)N[C@H](Cc1ccc(O)cc1)C(=O)O [N-tetradecanoyl-D-tyrosine] |  |  | 44.4 | 44.4
122.3 |  | 122.3 |  |  |  | CCCCCCCCCCCCCC(=O)N[C@@H](Cc1ccc(O)cc1)C(=O)O [N-tetradecanoyl-L-tyrosine, reference compound] | 41.9 |  | 41.9 | 
100.4 |  | 100.4 |  |  |  | CCCCCCCCCCCC(=O)N[C@@H](Cc1ccccc1)C(=O)O [N-dodecanoyl-L-phenylalanine, reference compound] | 36.6 |  | 36.6 | 
 |  | 100.3 | 100.3 |  |  | CCCCCCCCCC(=O)N[C@H](CC(C)C)C(=O)O [N-decanoyl-D-leucine] |  |  | 93.8 | 93.8
103.1 ± 3.7^¤ |  | 103.1 ± 3.7^¤ |  |  |  | CCCCCCCCCCCCCC(=O)N[C@@H](CCC(=O)O)C(=O)O [N-tetradecanoyl-L-glutamic acid, reference compound] | 82.0 ± 3.2^¤ |  | 82.0 ± 3.2^¤ | 
 |  | 102.4 |  |  |  | CCCCCCCCCC(=O)N[C@H](C(=O)O)[C@@H](C)CC [N-decanoyl-L-isoleucine, reference compound] |  |  | 58.3 | 
 |  | 99.1 | 99.1 |  |  | CCCCCCCCCCCC(=O)N1CCC[C@@H]1C(=O)O [N-dodecanoyl-D-proline] |  |  | 76.6 | 76.6
 |  | 99.3 | 99.3 |  |  | CCCCCCCCCCCC(=O)N[C@@H](C(=O)O)C(C)C [N-dodecanoyl-D-valine] |  |  | 66.1 | 66.1
100.2 |  | 100.2 |  |  |  | CCCCCCCCCCCCCC(=O)N[C@@H](CC(=O)O)C(=O)O [N-tetradecanoyl-L-aspartic acid, reference compound] | 77.1 |  | 77.1 | 
 |  | 96.1 | 96.1 |  |  | CCCCCCCCCCCCCC(=O)N[C@H](CC(=O)O)C(=O)O [N-tetradecanoyl-D-aspartic acid] |  |  | 74.2 | 74.2
109.5 |  | 109.5 |  |  |  | CCCCCCCCCCCCCCCC(=O)N[C@@H](CCC(=O)O)C(=O)O [N-hexadecanoyl-L-glutamic acid, reference compound] | 72.3 |  | 72.3 | 
 |  | 109.9 | 109.9 |  |  | CCCCCCCCCCCCCC(=O)N[C@H](Cc1c[nH]c2ccccc12)C(=O)O [N-tetradecanoyl-D-tryptophan] |  |  | 31.3 | 31.3
 |  | 102.2 ± 1.9^¤ | 102.2 ± 1.9^¤ |  |  | CCCCCCCCCCCCCC(=O)N[C@H](CCC(=O)O)C(=O)O [N-tetradecanoyl-D-glutamic acid] |  |  | 79.9 ± 2.9^¤ | 79.9 ± 2.9^¤
 | 87.0 | 112.2 | 112.2 |  |  | CCCCCCCCCCCCCCCC(=O)N[C@H](CC(=O)O)C(=O)O [N-hexadecanoyl-D-aspartic acid] |  | 74.7 | 24.1 | 24.1
107.9 | 91.7 | 107.9 |  |  |  | CCCCCCCCCCCC(=O)N[C@@H](CC(C)C)C(=O)O [N-dodecanoyl-L-leucine, reference compound] | 47.8 | 57.4 | 47.8 | 
 |  | 101.4 |  |  |  | CCCCCCCCCCCC(=O)N[C@@H](C(=O)O)[C@H](C)CC [N-dodecanoyl-D-isoleucine] |  |  | 48.3 | 
107.9 |  | 107.9 |  |  |  | CCCCCCCCCCCCCC(=O)N[C@@H](Cc1c[nH]c2ccccc12)C(=O)O [N-tetradecanoyl-L-tryptophan, reference compound] | 27.8 |  | 27.8 | 
